These results are taken from patent publication US9023998B2, “Near infrared fluorogen and fluorescent activating proteins for in vivo imaging and live-cell biosensing” (Carnegie Mellon University, priority 2013, dated 2015).

In assay [1] the test system is S. cerevisiae expressing mL9.3 or mL9.5 surface-tethered. Description: Confocal imaging of yeast with surface-tethered FAPs. Particulars: 100 nM fluorogen, excitation 641 nm, emission 794/160. Type of assay: cell-based. The source says:
Plasmids pPNL6-mL9.3 and pPNL6-mL9.5 for yeast cell surface display were produced by PCR amplification of mL9.3 (SEQ. ID. NO. 23) and mL9.5 (SEQ. ID. NO. 24) from pPNL6-dL9.2 and pPNL6-dL9.5, respectively, using primers pCTCON2F (CGACGATTGAAGGTAGATACCCATACGACGTTCCAGACTACGCTCTGCAG) (SEQ. ID. NO. 29) and p6 mL9XRv (TCTCGATGCGGCCGCTTAAGACAAAACAGTAACTTTAGTACCACC) (SEQ. ID. NO. 30). Amplicons were digested with NheI and NotI prior to ligation into a like-digested pPNL6 vector backbone. Ligated plasmids were transformed into E. coli (NEB 10β) by heat-shock, and plasmids from single colonies were sequenced to verify identity. Upon verification, purified stocks of each plasmid were introduced into S. cerevisiae strain JAR200 via electroporation. Transformed cells were induced in the manner described in Szent-Gyorgyi, et al. 2008 for 96 hours prior to imaging. Cells were adhered to concanavalin A-coated glass-bottom dishes (MatTek Corporation) for 10 minutes at room temperature. […] Images of fluorescence (FIG. 12, NIR:794/160) were obtained by excitation with a 641 nm laser, and emission was collected through a 794/160 bandpass filter (Semrock) by an iXon3 EMCCD (DU897 BV). […]

A further assay concerns dL9.2 (SEQ. ID. NO. 2). Description: Binding/activation of fluorogen by FAP dL9.2. The source says: A precursor FAP designated dL9 (SEQ. ID. NO. 1) was designed using the coding sequence of the light-chain from HL9-MG, a scFv originally isolated for binding and fluorescence activation of malachite green-based fluorogenic dyes (Szent-Gyorgyi, et al. 2008, incorporated herein by reference). This FAP was assembled as a tandem dimer of light chains by attaching a glycine-serine linker and a codon-optimized copy of the light chain gene to the original light chain via PCR. […] Mutagenesis and library generation by electroporation was performed in a previously described manner (Chao, et al., Isolating and engineering human antibodies using yeast surface display, Nature Protocols, vol. 1, No. 2, pp. 755-768 (2006)), but screening employed the protein secretion vector pPNL9, rather than the surface display vector pPNL6: Individual S. cerevisiae expressing FAP mutants were incubated with cell-permeant fluorogen MG-ester and the brightest activators were cloned via flow cytometry. Clones were induced for FAP production in tryptone-based protein secretion media (Szent-Gyorgyi, et al. 2008) and media was screened for activation of MG-ester after five days of induction at 20° C. This screen yielded dL9.2 (SEQ. ID. NO. 2): a bright, stable FAP amenable to high levels of expression. […]

Turning to `CN(C)c1ccc(/C=C/C(=C2C=CC(=[N+](C)C)C=C2)c2ccc(N(C)C)cc2)cc1` [SKC602, (E)-N-(4-(1,3-bis(4-(dimethylamino)phenyl)allylidene)cyclohexa-2,5-dien-1-ylidene)-N-methylmethanaminium], the “NIR fluorescence of fluorogen alone in non-expressing yeast” value in assay [1] is on record as “do not cause NIR fluorescence in the absence of cognate FAP”. Further, the “Binding and fluorescence activation by dL9.2” value with dL9.2 (SEQ. ID. NO. 2) was “bind and activate fluorescence”.

`CN(C)c1ccc(C(/C=C/c2ccc(N(C)CCCCC(=O)NC(CCS(=O)(=O)O)C(=O)O)cc2)=C2C=CC(=[N+](C)C)C=C2)cc1` (stereo not shown) [SKC728]: the “NIR fluorescence of fluorogen alone in non-expressing yeast” value in assay [1] is “do not cause NIR fluorescence in the absence of cognate FAP”. The “Binding and fluorescence activation by dL9.2” value in the assay with dL9.2 (SEQ. ID. NO. 2) is recorded as “bind”.
